# Legend:
# AURKB (human) = AURKB (human) (UniProt Q96GD4)
# CAMKK2 (human) = CAMKK2 (human) (UniProt Q96RR4)
# CHEK1 (human) = CHEK1 (human) (UniProt O14757)
# CSK (human) = CSK (human) (UniProt P41240)
# CSNK2A1 (human) = CSNK2A1 (human) (UniProt P68400)
# CaMK1 (human) = CaMK1 (human) (UniProt Q14012)
# EEF2K (human) = EEF2K (human) (UniProt O00418)
# MAPK12 (human) = MAPK12 (human) (UniProt P53778)
# MAPK13 (human) = MAPK13 (human) (UniProt O15264)
# MAPKAPK2 (human) = MAPKAPK2 (human) (UniProt P49137)
# PAK4 (human) = PAK4 (human) (UniProt O96013)
# PAK6 (human) = PAK6 (human) (UniProt Q9NQU5)
# PAK6 (human), sequence (Q9NQU5 whole entry, looked up): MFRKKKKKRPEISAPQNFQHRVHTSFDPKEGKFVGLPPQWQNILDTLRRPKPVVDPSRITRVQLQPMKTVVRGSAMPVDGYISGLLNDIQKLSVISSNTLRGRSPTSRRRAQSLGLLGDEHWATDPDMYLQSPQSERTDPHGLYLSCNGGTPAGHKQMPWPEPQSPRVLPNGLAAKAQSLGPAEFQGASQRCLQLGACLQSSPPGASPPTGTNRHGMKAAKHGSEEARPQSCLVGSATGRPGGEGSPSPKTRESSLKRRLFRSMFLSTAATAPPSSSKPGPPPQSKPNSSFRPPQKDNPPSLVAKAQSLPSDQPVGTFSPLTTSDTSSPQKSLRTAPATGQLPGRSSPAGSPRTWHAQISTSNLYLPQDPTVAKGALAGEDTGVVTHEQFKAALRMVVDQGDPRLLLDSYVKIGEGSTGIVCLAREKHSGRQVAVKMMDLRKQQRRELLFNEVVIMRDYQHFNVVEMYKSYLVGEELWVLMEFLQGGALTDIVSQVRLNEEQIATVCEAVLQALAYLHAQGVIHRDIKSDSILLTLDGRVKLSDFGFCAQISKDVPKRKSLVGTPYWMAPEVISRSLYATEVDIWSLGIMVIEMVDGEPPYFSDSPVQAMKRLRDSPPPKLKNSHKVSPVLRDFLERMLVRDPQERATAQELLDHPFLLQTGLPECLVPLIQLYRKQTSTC
# PIM2 (human) = PIM2 (human) (UniProt Q9P1W9)
# PLK1 (human) = PLK1 (human) (UniProt P53350)
# PRKCA (human) = PRKCA (human) (UniProt P17252)
# PRKCZ (human) = PRKCZ (human) (UniProt Q05513)
# ROCK2 (rat) = conditions: accession and sequence are those of the human protein
# RPS6KA1 KD1 KD2 (human) = RPS6KA1 KD1 KD2 (human) (UniProt Q15418)
# RPS6KA1 KD1 KD2 (human), sequence (Q15418 whole entry, looked up): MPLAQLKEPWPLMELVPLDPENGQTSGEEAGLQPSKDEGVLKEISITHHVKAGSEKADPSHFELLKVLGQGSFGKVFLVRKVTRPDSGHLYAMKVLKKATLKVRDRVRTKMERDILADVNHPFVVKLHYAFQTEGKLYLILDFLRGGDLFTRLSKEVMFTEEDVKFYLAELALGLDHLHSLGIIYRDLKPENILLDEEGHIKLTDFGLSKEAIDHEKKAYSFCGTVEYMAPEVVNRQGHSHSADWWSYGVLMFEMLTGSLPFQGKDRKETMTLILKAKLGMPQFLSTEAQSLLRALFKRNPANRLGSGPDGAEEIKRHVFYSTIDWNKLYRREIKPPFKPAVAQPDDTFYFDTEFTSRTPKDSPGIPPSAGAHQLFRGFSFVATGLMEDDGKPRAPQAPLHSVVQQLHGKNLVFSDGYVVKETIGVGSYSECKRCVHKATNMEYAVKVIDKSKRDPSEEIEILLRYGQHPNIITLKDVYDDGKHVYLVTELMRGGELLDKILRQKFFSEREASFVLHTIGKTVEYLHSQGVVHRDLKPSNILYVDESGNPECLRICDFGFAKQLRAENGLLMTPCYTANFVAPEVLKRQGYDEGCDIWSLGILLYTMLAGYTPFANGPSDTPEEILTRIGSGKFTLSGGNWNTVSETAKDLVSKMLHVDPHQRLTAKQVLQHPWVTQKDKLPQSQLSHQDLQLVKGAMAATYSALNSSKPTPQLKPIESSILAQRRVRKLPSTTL
# [1] = tested on: RPS6KB1 (human), P23443 [T412E]
# [2] = tested on: SGK1 (human), O00141 [S422D]
# SRPK1 (human) = SRPK1 (human) (UniProt Q96SB4)
# SRPK1 (human), sequence (Q96SB4 whole entry, looked up): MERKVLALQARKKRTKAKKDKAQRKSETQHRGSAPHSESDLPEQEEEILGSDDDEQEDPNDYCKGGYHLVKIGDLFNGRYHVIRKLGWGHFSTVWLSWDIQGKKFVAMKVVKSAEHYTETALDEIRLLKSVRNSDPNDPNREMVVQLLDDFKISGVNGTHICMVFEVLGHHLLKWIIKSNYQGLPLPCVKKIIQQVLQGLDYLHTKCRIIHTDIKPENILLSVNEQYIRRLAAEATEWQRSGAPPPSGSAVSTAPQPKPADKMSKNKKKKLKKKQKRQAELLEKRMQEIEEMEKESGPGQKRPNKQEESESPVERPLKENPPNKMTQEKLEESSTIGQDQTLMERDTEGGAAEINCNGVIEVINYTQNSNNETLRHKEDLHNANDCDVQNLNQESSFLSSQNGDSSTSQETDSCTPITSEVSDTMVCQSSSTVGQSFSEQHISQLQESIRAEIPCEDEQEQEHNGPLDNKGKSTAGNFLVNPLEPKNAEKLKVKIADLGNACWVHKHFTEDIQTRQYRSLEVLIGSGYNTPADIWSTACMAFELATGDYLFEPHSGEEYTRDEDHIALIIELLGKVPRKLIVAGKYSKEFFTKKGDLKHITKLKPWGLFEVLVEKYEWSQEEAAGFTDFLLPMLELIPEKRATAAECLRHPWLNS
# STK3 (human) = STK3 (human) (UniProt Q13188)
# STK3 (human), sequence (Q13188 whole entry, looked up): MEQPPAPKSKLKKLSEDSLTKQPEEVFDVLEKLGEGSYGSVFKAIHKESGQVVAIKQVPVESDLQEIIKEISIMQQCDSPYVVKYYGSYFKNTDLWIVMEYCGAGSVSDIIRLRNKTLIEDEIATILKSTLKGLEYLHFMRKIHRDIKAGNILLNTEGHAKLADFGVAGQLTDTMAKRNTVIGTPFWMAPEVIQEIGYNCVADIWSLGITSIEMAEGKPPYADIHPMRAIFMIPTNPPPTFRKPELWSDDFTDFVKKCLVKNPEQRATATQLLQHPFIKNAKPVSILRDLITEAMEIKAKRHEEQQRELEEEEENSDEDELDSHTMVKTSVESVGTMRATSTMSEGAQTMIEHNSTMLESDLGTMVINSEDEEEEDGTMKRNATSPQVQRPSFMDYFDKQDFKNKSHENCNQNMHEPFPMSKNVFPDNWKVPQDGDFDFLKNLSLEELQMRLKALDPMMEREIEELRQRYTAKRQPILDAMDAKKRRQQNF
# YES1 (human) = YES1 (human) (UniProt P07947)
# YES1 (human), sequence (P07947 whole entry, looked up): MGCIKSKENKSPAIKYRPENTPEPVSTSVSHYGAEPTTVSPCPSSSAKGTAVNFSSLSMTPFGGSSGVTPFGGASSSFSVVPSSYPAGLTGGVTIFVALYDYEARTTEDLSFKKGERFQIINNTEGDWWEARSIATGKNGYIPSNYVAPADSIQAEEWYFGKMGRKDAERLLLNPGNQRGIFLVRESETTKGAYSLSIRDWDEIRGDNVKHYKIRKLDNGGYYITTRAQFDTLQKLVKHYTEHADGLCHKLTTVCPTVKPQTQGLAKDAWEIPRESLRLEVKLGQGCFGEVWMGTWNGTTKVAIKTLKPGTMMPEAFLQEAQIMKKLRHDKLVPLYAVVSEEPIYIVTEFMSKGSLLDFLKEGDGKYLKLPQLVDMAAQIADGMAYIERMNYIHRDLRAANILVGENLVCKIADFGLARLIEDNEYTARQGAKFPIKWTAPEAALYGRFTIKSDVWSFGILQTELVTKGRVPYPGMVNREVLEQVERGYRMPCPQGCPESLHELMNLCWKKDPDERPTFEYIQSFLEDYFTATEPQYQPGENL
# DDR2 (human) = DDR2 (human) (UniProt Q16832); assay: KINOMEscan competition binding; conditions: compound 10.0 µM
# DYRK1B (human) = DYRK1B (human) (UniProt Q9Y463); assay: KINOMEscan competition binding; conditions: compound 10.0 µM
# [3] = tested on: EGFR (human), P00533 [T790M]; assay: KINOMEscan competition binding; conditions: compound 10.0 µM
# EPHA4 (human) = EPHA4 (human) (UniProt P54764); assay: KINOMEscan competition binding; conditions: compound 10.0 µM
# FRK (human) = FRK (human) (UniProt P42685); assay: KINOMEscan competition binding; conditions: compound 10.0 µM
# HIPK3 (human) = HIPK3 (human) (UniProt Q9H422); assay: KINOMEscan competition binding; conditions: compound 10.0 µM
# PKMYT1 (human) = PKMYT1 (human) (UniProt Q99640); assay: KINOMEscan competition binding; conditions: compound 10.0 µM
# RIPK2 (human) = RIPK2 (human) (UniProt O43353); assay: KINOMEscan competition binding; conditions: compound 10.0 µM
# PI4KA (human) = PI4KA (human) (UniProt P42356)
# PI4KB (human) = PI4KB (human) (UniProt Q9UBF8)
# PIK3C2A (human) = PIK3C2A (human) (UniProt O00443)
# PIK3C2B (human) = PIK3C2B (human) (UniProt O00750)
# PIK3C3 (human) = PIK3C3 (human) (UniProt Q8NEB9)
# CSNK2A1 (human), sequence (P68400 whole entry, looked up): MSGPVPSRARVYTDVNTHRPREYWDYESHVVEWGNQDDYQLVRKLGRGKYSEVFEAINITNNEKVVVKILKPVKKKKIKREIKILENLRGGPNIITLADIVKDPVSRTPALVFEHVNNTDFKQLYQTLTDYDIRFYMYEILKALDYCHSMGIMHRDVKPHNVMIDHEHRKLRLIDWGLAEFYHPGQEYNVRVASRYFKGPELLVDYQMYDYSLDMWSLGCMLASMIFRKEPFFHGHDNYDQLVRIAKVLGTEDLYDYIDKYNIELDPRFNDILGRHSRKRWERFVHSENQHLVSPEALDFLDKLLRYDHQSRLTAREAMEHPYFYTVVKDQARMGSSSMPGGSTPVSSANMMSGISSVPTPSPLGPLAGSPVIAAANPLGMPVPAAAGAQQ
# CaMK1 (human), sequence (Q14012 whole entry, looked up): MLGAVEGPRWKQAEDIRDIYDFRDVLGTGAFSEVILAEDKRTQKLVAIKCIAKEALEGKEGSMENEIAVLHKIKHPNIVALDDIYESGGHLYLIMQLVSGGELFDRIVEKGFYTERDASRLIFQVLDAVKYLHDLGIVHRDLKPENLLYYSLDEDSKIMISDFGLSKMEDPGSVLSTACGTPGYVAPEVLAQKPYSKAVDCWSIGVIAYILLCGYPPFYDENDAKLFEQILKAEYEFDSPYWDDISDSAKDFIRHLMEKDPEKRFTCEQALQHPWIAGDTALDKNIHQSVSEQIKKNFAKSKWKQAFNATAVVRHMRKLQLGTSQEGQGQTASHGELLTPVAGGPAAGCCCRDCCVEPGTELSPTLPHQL
# CSK (human), sequence (P41240 whole entry, looked up): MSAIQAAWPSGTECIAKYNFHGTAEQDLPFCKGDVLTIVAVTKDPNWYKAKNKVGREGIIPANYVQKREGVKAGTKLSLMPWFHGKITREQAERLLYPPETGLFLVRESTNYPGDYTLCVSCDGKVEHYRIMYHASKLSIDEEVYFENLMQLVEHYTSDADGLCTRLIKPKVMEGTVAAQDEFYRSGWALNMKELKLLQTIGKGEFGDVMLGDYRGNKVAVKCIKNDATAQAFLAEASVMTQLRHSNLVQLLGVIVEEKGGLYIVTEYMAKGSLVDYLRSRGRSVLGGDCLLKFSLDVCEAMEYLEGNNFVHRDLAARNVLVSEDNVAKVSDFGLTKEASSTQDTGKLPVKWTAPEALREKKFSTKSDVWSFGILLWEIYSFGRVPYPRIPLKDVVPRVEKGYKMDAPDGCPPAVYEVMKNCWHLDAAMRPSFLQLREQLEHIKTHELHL
# CHEK1 (human), sequence (O14757 whole entry, looked up): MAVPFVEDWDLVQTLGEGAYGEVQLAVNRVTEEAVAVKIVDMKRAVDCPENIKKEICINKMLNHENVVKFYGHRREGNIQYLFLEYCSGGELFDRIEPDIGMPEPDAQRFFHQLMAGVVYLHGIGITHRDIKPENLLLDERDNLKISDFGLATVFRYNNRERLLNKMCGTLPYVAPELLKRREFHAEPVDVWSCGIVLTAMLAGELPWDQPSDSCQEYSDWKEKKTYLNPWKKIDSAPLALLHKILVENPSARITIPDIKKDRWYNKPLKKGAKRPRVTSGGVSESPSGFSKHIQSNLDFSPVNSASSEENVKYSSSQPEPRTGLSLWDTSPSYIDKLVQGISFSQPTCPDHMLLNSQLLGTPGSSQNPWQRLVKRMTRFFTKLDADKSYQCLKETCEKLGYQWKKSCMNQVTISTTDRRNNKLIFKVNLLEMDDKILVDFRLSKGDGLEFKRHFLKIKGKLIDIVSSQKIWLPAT
smiles,measurement,setting,value
COC(=O)Nc1ccc(-c2nc(N3CCOCC3)c3cnn(C4CCN(C(=O)OC)CC4)c3n2)cc1,per cent of control,AURKB (human); compound 1.0 µM,91%
same,per cent of control,AURKB (human); compound 10.0 µM,100%
same,per cent of control,CAMKK2 (human); compound 1.0 µM,102%
same,per cent of control,CAMKK2 (human); compound 10.0 µM,95%
same,per cent of control,CHEK1 (human); compound 1.0 µM,96%
same,per cent of control,CHEK1 (human); compound 10.0 µM,92%
same,per cent of control,CSK (human); compound 1.0 µM,113%
same,per cent of control,CSK (human); compound 10.0 µM,106%
same,per cent of control,CSNK2A1 (human); compound 1.0 µM,99%
same,per cent of control,CSNK2A1 (human); compound 10.0 µM,92%
same,per cent of control,CaMK1 (human); compound 1.0 µM,97%
same,per cent of control,CaMK1 (human); compound 10.0 µM,102%
same,per cent of control,EEF2K (human); compound 1.0 µM,97%
same,per cent of control,EEF2K (human); compound 10.0 µM,106%
same,per cent of control,MAPK12 (human); compound 1.0 µM,55%
same,per cent of control,MAPK12 (human); compound 10.0 µM,17%
same,per cent of control,MAPK13 (human); compound 1.0 µM,14%
same,per cent of control,MAPK13 (human); compound 10.0 µM,10%
same,per cent of control,MAPKAPK2 (human); compound 1.0 µM,98%
same,per cent of control,MAPKAPK2 (human); compound 10.0 µM,91%
same,per cent of control,PAK4 (human); compound 1.0 µM,93%
same,per cent of control,PAK4 (human); compound 10.0 µM,97%
same,per cent of control,PAK6 (human); compound 1.0 µM,99%
same,per cent of control,PAK6 (human); compound 10.0 µM,90%
same,per cent of control,PIM2 (human); compound 1.0 µM,81%
same,per cent of control,PIM2 (human); compound 10.0 µM,80%
same,per cent of control,PLK1 (human); compound 1.0 µM,105%
same,per cent of control,PLK1 (human); compound 10.0 µM,88%
same,per cent of control,PRKCA (human); compound 1.0 µM,81%
same,per cent of control,PRKCA (human); compound 10.0 µM,75%
same,per cent of control,PRKCZ (human); compound 1.0 µM,93%
same,per cent of control,PRKCZ (human); compound 10.0 µM,106%
same,per cent of control,ROCK2 (rat); compound 1.0 µM,92%
same,per cent of control,ROCK2 (rat); compound 10.0 µM,97%
same,per cent of control,RPS6KA1 KD1 KD2 (human); compound 1.0 µM,100%
same,per cent of control,RPS6KA1 KD1 KD2 (human); compound 10.0 µM,102%
same,per cent of control,[1]; compound 1.0 µM,94%
same,per cent of control,[1]; compound 10.0 µM,93%
same,per cent of control,[2]; compound 1.0 µM,85%
same,per cent of control,[2]; compound 10.0 µM,77%
same,per cent of control,SRPK1 (human); compound 1.0 µM,109%
same,per cent of control,SRPK1 (human); compound 10.0 µM,102%
same,per cent of control,STK3 (human); compound 1.0 µM,85%
same,per cent of control,STK3 (human); compound 10.0 µM,96%
same,per cent of control,YES1 (human); compound 1.0 µM,109%
same,per cent of control,YES1 (human); compound 10.0 µM,113%
same,"kinase still bound, per cent of control",DDR2 (human),100%
same,"kinase still bound, per cent of control",DYRK1B (human),93%
same,"kinase still bound, per cent of control",[3],100%
same,"kinase still bound, per cent of control",EPHA4 (human),88%
same,"kinase still bound, per cent of control",FRK (human),99%
same,"kinase still bound, per cent of control",HIPK3 (human),72%
same,"kinase still bound, per cent of control",PKMYT1 (human),100%
same,"kinase still bound, per cent of control",RIPK2 (human),65%
same,IC50,PI4KA (human),> 3.33 µM
same,IC50,PI4KB (human),> 10 µM
same,IC50,PIK3C2A (human),> 10 µM
same,IC50,PIK3C2B (human),5.15 µM
same,IC50,PIK3C3 (human),> 10 µM

# Source: the kinase profiling compilation of Christmann-Franck et al. (2016)
